Converted amounts (≈) assume the structure as drawn.
Tests used:
VZV strain Ellen = experiment: VZV Antiviral (ELISA) Assay; assay type: cell-based, varicella-zoster virus; settings: human foreskin fibroblast cells; for IC50 / inhibition at 10 µg/mL: Human alphaherpesvirus 3, Fibroblast; for IC50: read-out: IC50 Ug/ml VZV; for inhibition at 10 µg/mL: read-out: % inhibition 10 ug/ml VZV, 10 ug/ml
Method in brief: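 Low-MOI (<0.1) Ellen infection of HFF overnight; cell mix plated 3.5×10^4/well with compound, DMEM + 2% FBS, 3 d, 37° C, 5% CO2. Fix, anti-gpII mAb ELISA, MUG substrate, fluorescence. IC50 vs compound-free signal.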

HCMV wild-type = experiment: HCMV yield assay; assay type: cell-based, human cytomegalovirus; settings: human foreskin fibroblasts; for IC50: Human betaherpesvirus 5, Fibroblast, read-out: IC50 Ug/ml HCMV
Method in brief: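 Value is the compound amount cutting virus yield titer by 50% (IC50) or 90% (IC90). Human foreskin fibroblasts infected with wild-type HCMV (MOI typically 0.2) under varying compound; progeny harvested day 3, titered compound-free on fibroblasts, plaques scored at 2 weeks.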

HSV-1 = experiment: HSV Antiviral (ELISA) Assay; assay type: cell-based, herpes simplex virus type 1; settings: Vero cells, HSV-1; for IC50: Human alphaherpesvirus 1, Vero, read-out: IC50 Ug/ml HSV
Method in brief: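 Replication measured as glycoprotein D signal in fixed cells: anti-gD antibody plus β-galactosidase-linked secondary, fluorogenic substrate read at 365/450 nm. Vero cells (2% FBS DMEM) received compound 30 min pre-infection, HSV-1 MOI 0.006, ~24 h incubation; IC50 relative to no-compound fluorescence.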

| Compound | IC50 (VZV strain Ellen) [µg/mL] | inhibition at 10 µg/mL (VZV strain Ellen) [%] | IC50 (HCMV wild-type) [µg/mL] | IC50 (HSV-1) [µg/mL] | % inhibition 10 ug/ml VZV (VZV strain Ellen; 10 ug/ml) [%] | IC50 Ug/ml VZV (VZV strain Ellen) [Ug/ml] | IC50 Ug/ml HCMV (HCMV wild-type) [Ug/ml] | IC50 Ug/ml HSV (HSV-1) [Ug/ml] |
| --- | --- | --- | --- | --- | --- | --- | --- | --- |
| CC(=O)Nc1ccc(NC(=S)Nc2ccc(NC(=O)CSCCN(C)C)c(Cl)c2)cc1 [Example 372, N-{4-[3-(4-Acetylamino-phenyl)-thioureido]-2-chloro-phenyl}-2-(2-dimethylamino-ethylsulfanyl)-acetamide] | > 10 | 53 | > 10 | > 10 | – | – | – | – |
| COc1cc(OC)c(NC(=S)Nc2ccc(NC(C)=O)cc2)cc1I [Example 197, N-{4-[3-(5-Iodo-2,4-dimethoxy-phenyl)-thioureido]-phenyl}-acetamide] | > 15 | 59 | > 10 | 6 (≈ 12.7 µM) | – | – | – | – |
| COc1cc(OC)c(NC(=S)Nc2ccc(NC(C)=O)c(Cl)c2)cc1Cl [Example 275, N-{2-Chloro-4-[3-(5-chloro-2,4-dimethoxy-phenyl)-thioureido]-phenyl}-acetamide] | > 10 | 32 | > 10 | 10 (≈ 24.1 µM) | – | – | – | – |
| N-{4-[3-(4-Acetylamino-phenyl)-thioureido]-2-chloro-phenyl}-2-thiomorpholin-4-yl-acetamide [Example 405] | – | – | – | – | 83 | 13 | >10 | >10 |
| CC(=O)Nc1ccc(NC(=S)Nc2ccc(F)c(Cl)c2)cc1 [Example 902, N-{4-[3-(3-Chloro-4-fluoro-phenyl)-thioureido]-phenyl}-acetamide] | > 10 | 1 | 12 (≈ 35.5 µM) | 4 (≈ 11.8 µM) | – | – | – | – |
| COc1ccc(NC(=S)Nc2ccc(NC(C)=O)cc2)cc1Cl [Example 106, N-{4-[3-(3-Chloro-4-methoxy-phenyl)-thioureido]-phenyl}-acetamide] | > 10 | 20 | 7 (≈ 20 µM) | 3 (≈ 8.58 µM) | – | – | – | – |
| CCOC(=O)Nc1ccc(NC(=S)Nc2ccc(NC(C)=O)cc2)cc1Cl [Example 313, {4-[3-(4-Acetylamino-phenyl)-thioureido]-2-chloro-phenyl}-carbamic acid ethyl ester] | > 10 | 36 | > 10 | > 10 | – | – | – | – |
| CC(=O)Nc1ccc(NC(=S)Nc2ccc([N+](=O)[O-])cc2)cc1 [Example 879, N-{4-[3-(4-Nitro-phenyl)-thioureido]-phenyl}-acetamide] | > 10 | 16 | > 10 | > 50 | – | – | – | – |
| COc1cc(N(C)C)c(NC(=S)Nc2ccc(NC(C)=O)cc2)cc1Cl [Example 227, N-{4-[3-(5-Chloro-2-dimethylamino-4-methoxy-phenyl)-thioureido]-phenyl}-acetamide] | > 10 | 32 | > 50 | > 50 | – | – | – | – |
| CC(=O)Nc1ccc(NC(=S)Nc2cc(Cl)c(OCc3ccccc3)c(Cl)c2)cc1 [Example 178, N-{4-[3-(4-Benzyloxy-3,5-dichloro-phenyl)-thioureido]-phenyl}-acetamide] | > 10 | 32 | > 10 | > 50 | – | – | – | – |
| CC(=O)Nc1ccc(NC(=S)Nc2ccc(OCc3ccccc3)c(Cl)c2)cc1 [Example 269, N-{4-[3-(4-Benzyloxy-3-chloro-phenyl)-thioureido]-phenyl}-acetamide] | > 10 | 38 | 5 (≈ 11.7 µM) | > 10 | – | – | – | – |
| COc1ccc(NC(=S)Nc2ccc(NC(C)=O)cc2)c(O)c1 [Example 132, N-{4-[3-(2-Hydroxy-4-methoxy-phenyl)-thioureido]-phenyl}-acetamide] | > 10 | 11 | > 50 | > 50 | – | – | – | – |
| CC(=O)Nc1ccc(NC(=S)Nc2cc(Cl)ccc2Cl)cc1 [Example 930, N-{4-[3-(2,5-Dichloro-phenyl)-thioureido]-phenyl}-acetamide] | > 10 | 42 | > 10 | 10 (≈ 28.2 µM) | – | – | – | – |

Reference: patent publication US6335350B1, “Acetamide and substituted acetamide-containing thiourea inhibitors of herpes viruses” (American Home Products Corporation, priority 1998, dated 2002)
